Measurements taken from US12503455B2, “Nucleic acid-binding photoprobes and uses thereof” (Arrakis Therapeutics, Inc., priority 2017, dated 2025).
Entries after “also recorded” stand apart in the source; their conditions may differ.

Tests used:
Aptamer 21 RNA = test: Online SEC-LCMS binding to Aptamer 21 RNA; details: for % of binding: RNA 1 uM
Experimental: Online SEC-LCMS has been used to study the binding to Aptamer 21 RNA against I-1 (ARK-139).
(§1) The RNA concentration was 1 μM and the ligand concentration ranged from 0.1 to 10 μM in an appropriate buffer (TRIS-HCl 20 mM pH 8.0, MgCl2 3 mM, KCl 100 mM).
(§2) The RNA/ligand mixtures were incubated at room temperature for 20 minutes in a 96-well plate format, then this plate was loaded into an autosampler linked to the chromatography system fitted with a reusable SEC column for rapid separation of target/ligand complexes from unbound components. RNA/ligand complexes in SEC eluent were monitored by UV detection, and an automated valving system directed the RNA peak to a reverse phase chromatography column for dissociation, desalting, and elution of any ligands into an ESI-MS system for identification.
(§3) All liquid chromatographic components were HP1200 modules. The mass spectrometer was the Waters LCT premier instrument operated in positive electrospray (ES+) TOF-MS mode. The mass range acquired was 80-1000 m/z in 0.25 s. The SEC column was 50×4.6 mm polyhydroxyethyl column. The SEC mobile phase was 50 mM phosphate buffer with 200 mM NaCl, pH=7.0. The LC column was a 2.1×50 mm C18 Phenomenex column. The gradient LC mobile phase A was 0.1% formic acid in water and B was acetonitrile/water with 0.1% formic acid. The run time was 7.9 min.
Binding of I-1 to Aptamer 21 was measured. SEC/LCMS conditions for this experiment were: [I-1]=5 uM, [RNA]=1 uM, Buffer=Tris-HCl 20 mM, KCl 100 mM, 3 mM MgCl2.

Aptamer-21 = details: Lau et al., ACS Nano 2011; read-out: Kd of Aptamer-21 against compound 1b; cited from earlier work
Aptamer 21-E [1] = test: SPR binding to mutant Aptamer 21-E; details: data not shown; listed as ARK-139
From the text: Surface plasmon resonance (SPR) may be used to screen ligands and hook and click constructs for binding to a target RNA of interest. SPR is especially useful for monitoring biomolecular interactions in real time. Typically, target species and unrelated control are immobilized to a sensor chip, then analytes (compounds/fragments) are flowed over the surface. Binding of the compound to target species results in increase of SPR signal (association phase). Washing away bound compound with buffer results in a decrease of SPR signal (dissociation phase). Fitting of sensorgrams recorded at different compound concentrations is performed to an appropriate interaction model. The method allows extraction of kinetic parameters (ka, kd→KD). Requirements/limitations include that the ka/kd values be in reasonable ranges; and the target size must not be too large (<100 kDa). It is an excellent method to screen fragments and profile or validate hits. BC4000 may be used for primary screening (up to 4,000 data pts/week). Biacore T200 is suitable for hit profiling and validation.
Experiments were performed on a MASS-2 (Sierra Sensors) at 25° C. A high capacity amine chip was equilibrated with PBS. The chip was conditioned with alternating injections of 10 mM HCl and 10 mM NaOH in 1 M NaCl. […]

Aptamer 21-E [2] = test: SEC/LCMS binding to Aptamer 21-E
Experimental: as §1, §2, §3
The start of saturation was between 1 and 3 μM.

COC(=O)C1=C(COCc2cn(CCOCCOCCO)nn2)NC(c2ccncc2)=NC1c1ccc(F)cc1Cl (racemic) [I-1]
% of binding (Aptamer 21 RNA; ARK-000139 conc 0.1 μM): 72.5% | % of binding (Aptamer 21 RNA; ARK-000139 conc 0.5 μM): 36.5% | % of binding (Aptamer 21 RNA; ARK-000139 conc 1 μM): 33.6% | % of binding (Aptamer 21 RNA; ARK-000139 conc 3 μM): 22.4% | % of binding (Aptamer 21 RNA; ARK-000139 conc 10 μM): 8.9% | binding to Aptamer 21 by SEC-MS (Aptamer 21 RNA; data not shown): confirmed | Kd (Aptamer-21): 50 nM | binding to Aptamer 21-E by SPR (Aptamer 21-E [1]): not to bind; also recorded: did not bind | binding to Aptamer 21-E by SEC/LCMS (Aptamer 21-E [2]): does not bind
